Experimental data reported in US11271237B2, “Organic redox molecules for flow batteries” (UCHICAGO ARGONNE, LLC, priority 2019, dated 2022).
≈ marks a conversion by molar mass, not a printed value.

Assays:
[1] = Viscosity measurement with RHEOSENSE microfluidic MEMS viscometer; format: physicochemical; details: neat liquid, 23.4° C., shear rates 500-5000 s^−1 (EG1, EG2) or 100-4000 s^−1 (EG3)
Protocol: The viscosities of liquid TEMPO derivatives were determined at 23.4° C. using a RHEOSENSE microfluidic and micro-electro-mechanical-systems (MEMS) viscometer. The RHEOSENSE viscometer is based on the viscometer-rheometer-on-a-chip (VROC) technology. For TEMPO-EG1 and EG2, shear rates were swept from 500 s^−1 to 5000 s^−1, while the viscosity of TEMPO-EG3 was measured from 100 s^−1 to 4000 s^−1. […] Longer glycol ether chains lead to increases in viscosity, but the impact differs drastically.

[2] = Cyclic voltammetry in non-aqueous carbonate electrolyte; format: physicochemical; details: 10 mM in 1.5 M LiPF6 in EC/EMC 3:7 (v/v); glassy carbon working electrode, lithium metal counter and reference; iR-correction
Protocol: (§1) FIG. 3 provides cyclic voltammograms of 10 mM 4-(1,4-dioxabutyl)-2,2,6,6-tetramethylpiperidine-1-oxyl (TEMPO-EG1) in a non-aqueous electrolyte (1.5 M LiPF6 in a mixture of ethylene carbonate (EC) and ethyl methyl carbonate (EMC), 3:7 (v/v), respectively) at various scan rates given in mV/s. In FIG. 3, the cyclic voltammograms were measured at various rates with iR-correction applied. A glassy carbon electrode was used as the working electrode, while lithium metal strips were used as the counter and reference electrodes.
as §1, with “FIG. 4” for “FIG. 3”, “mM 4-(1,4,7-trioxaoctyl)-2,2,6,6-tetramethylpiperidine-1-oxyl (TEMPO-EG2)” for “mM 4-(1,4-dioxabutyl)-2,2,6,6-tetramethylpiperidine-1-oxyl (TEMPO-EG1)”, “FIG. 4,” for “FIG. 3,”
as §1, with “FIG. 5” for “FIG. 3”, “mM 4-(1,4,7,10-tetraoxaundecyl)-2,2,6,6-tetramethylpiperidine-1-oxyl (TEMPO-EG3)” for “mM 4-(1,4-dioxabutyl)-2,2,6,6-tetramethylpiperidine-1-oxyl (TEMPO-EG1)”, “FIG. 5,” for “FIG. 3,”

[3] = in a carbonate-based electrolyte; cited from earlier work
[4] = Cyclic voltammetry in aqueous electrolytes; format: physicochemical; details: for redox potential: Pt disk working electrode, Pt coil counter
Protocol: Cyclic voltammograms of 10 mM TEMPO-EG3 in an aqueous electrolyte (1 M aqueous sulfuric acid) were measured at various scan rates given in mV/s. A Pt disk was used as the working electrode, while the counter electrode was a Pt coil and the reference electrode was Ag/AgCl.
Cyclic voltammograms of 10 mM TEMPO-EG3 in an aqueous electrolyte (1M aqueous sodium chloride) were measured at various scan rates given in mV/s. A Pt disk was used as the working electrode, while the counter electrode was a Pt coil and the reference electrode was Ag/AgCl.

viscosity [1]	redox potential [2]	redox potential ([4]; 10 mM in 1M aqueous sodium chloride (neutral electrolyte))	redox potential ([4]; 10 mM in 1 M aqueous sulfuric acid (acidic electrolyte))	electrochemical reversibility ([4]; cyclic voltammetry in common aqueous electrolytes)	SMILES	solubility [3]
–	–	–	–	–	COCCOc1cc(C(C)(C)C)c(OC)cc1C(C)(C)C [DBMMEB, 1,4-di-tert-butyl-2-methoxy-5-(2-rnethoxyethoxy)benzene]	600 mM (≈ 177 mg/mL)
10.88 mPa·s	3.53 V vs. Li/Li^+	–	–	–	COCCOCCOC1CC(C)(C)N([O])C(C)(C)C1 [TEMPO-EG2, 4-(3,6-dioxaheptyloxy)-2,2,6,6-tetramethylpiperidine-1-oxyl]	–
21.30 mPa·s	3.53 V vs. Li/Li^+	about 0.59 V vs. Ag/AgCl	about 0.55 V vs. Ag/AgCl	excellent electrochemical reversibility	COCCOCCOCCOC1CC(C)(C)N([O])C(C)(C)C1 [TEMPO-EG3, 4-(3,6,9-trioxadecyloxy)-2,2,6,6-tetramethylpiperidine-1-oxyl]	–

SMILES	viscosity [1]	redox potential [2]	redox potential ([4]; 10 mM in 1M aqueous sodium chloride (neutral electrolyte))	redox potential ([4]; 10 mM in 1 M aqueous sulfuric acid (acidic electrolyte))	electrochemical reversibility ([4]; cyclic voltammetry in common aqueous electrolytes)	solubility [3]
COCCOC1CC(C)(C)N([O])C(C)(C)C1 [TEMPO-EG1, 4-(2-methoxyethoxy)-2,2,6,6-tetramethylpiperidine-1-oxyl]	10.23 mPa·s	3.53 V vs. Li/Li^+	–	–	–	–
